Entries after “also recorded” stand apart in the source; their conditions may differ.
What was measured:
[1] = Sensory evaluation of sweeteners in iced tea; type: in vivo; conditions: 200 ml serving, aspartame 450 ppm, monatin 40 ppm, panel n=6
Protocol: Monatin formulations, including R,R monatin or R,R monatin/erythritol combinations, were assessed relative to other known sweeteners (aspartame and sucralose) in iced tea. The key sensory parameters assessed included sweetness quality, aftertaste, bitter taste and its aftertaste. Qualitative evaluation has been carried out.
An ice tea formulation was developed to evaluate sweetener performance (Table 7).
Sweeteners were added to tea at the following concentrations:
The evaluation of ice tea drinks was carried out by a panel (n=6) of experienced sensory evaluators.

[2] = Sensory evaluation of chewing gums (quality and time-intensity of sweetness); type: in vivo; conditions: in chewing gum, versus aspartame or sucralose
Protocol: Chewing gums sweetened individually with monatin, aspartame and sucralose were prepared in stick gum format of mint flavor. The gums were prepared to be iso-sweet and evaluated for quality of sweet taste and time-intensity of sweetness delivery.
A standard method of manufacture was adopted for all three gum formulations, as described.
The method of gum manufacture was as follows: • Pre-warm the gum base to 40-45° C. and then add to Z-blade mixer and mix • Sieve sorbitol powder • Remove a portion of the sorbitol, disperse sweetener in that portion and mix thoroughly • Return sweetener/sorbitol mix to remaining bulk of sorbitol powder and mix thoroughly • Mix lycasin and glycerol into a bowl and pre-heat to 50° C. • Add sorbitol powder to the Z-blade mixer containing the gum base • Add lycasin/glycerol and flavor to the Z-blade and mix for 20 minutes • Remove gum from Z-blade mixer • Roll to a thickness of 1.5 mm using a mechanical roller • Dust with talc in the ratio 3 g talc to 100 g gum • Cut into sticks measuring 19 mm×73 mm • Wrap individual sticks in foil Sensory Evaluation
Chewing gum compositions were evaluated by a panel of trained sensory assessors (n 4), all very experienced in the formal sensory evaluation of chewing gums, including an evaluation for time/intensity parameters. Qualitative and temporal characteristics of the gum's flavor and sweetness were evaluated.

[3] = Sensory stability of monatin and aspartame at pH 2.5, 3.0, 4.0 at 40° C.; type: physicochemical; conditions: for Rate constant (k) of sweetness loss: 40° C., pseudo-first order assumed; for SEV Monatin / Retention of Monatin Sweetness: stored at 40° C., monatin ~55 ppm
Protocol: The sensory stability of monatin solutions prepared at pH 2.5, 3.0 and 4.0 and stored at 40° C. was monitored for 100 days. Loss of sweetness from these solutions was compared with the losses of sweetness from aspartame solutions prepared and stored under identical conditions.
The sensory stability of monatin (8% SEV, ˜55 ppm, synthetic blend containing approximately 96% of the 2R,4R/2S, 4S enantiometric pair and 4% of the 2R,4S/2S,4R enantiometric pair) in phosphate/citrate buffers having a pH of 2.5, 3.0, and 4.0 was examined after storage at 40° C. The stability of monatin was compared to that of aspartame (400 ppm) in the same buffers. Three sucrose reference solutions were prepared in the same phosphate/citrate buffers as the monatin and aspartame solutions. All prepared solutions were stored in the dark.
The sweetness of each sweetener relative to sucrose was assessed in duplicate by a panel (n=8) of trained sensory evaluators experienced in the sweetness estimation procedure. All samples (in the same buffers) were served in duplicate at a temperature of 22° C.±1° C. Monatin (test) solutions, coded with 3 digit random number codes were presented individually to panelists, in random order. Sucrose reference standards, ranging from 4.0-10.0% (w/v) sucrose, increasing in steps of 0.5% (w/v) sucrose were also provided. Panelists were asked to estimate sweetness by comparing the sweetness of the test solution to the sucrose standards. This was carried out by taking 3 sips of the test solution, followed by a sip of water, followed by 3 sips of sucrose standard followed by a sip of water, etc. Panelists were encouraged to estimate the sweetness to one decimal place, e.g., 6.8, 8.5. A five minute rest period was imposed between evaluating the test solutions. Panelists were also asked to rinse well and eat a cracker to reduce any potential carry over effects.
If a pseudo-first order breakdown reaction is assumed, a plot of logn percentage retention versus time (logn % RTN v. t) allows estimation of the half-life (t½) and rate constant (k) of sweetness loss under any given set of conditions. In so doing, the kinetics of monatin and aspartame sweetness loss may be summarized as follows in Table 14.

Rate constant (k) of sweetness loss ([3]; pH 2.5): 0.011 day⁻¹
Sweetness Retained ([3]; pH 2.5, after 100 days storage at 40° C.): 29%
Retention of Monatin Sweetness ([3]; pH 2.5, day 1): 93.3%
Retention of Monatin Sweetness ([3]; pH 2.5, day 2): 91.2%
Retention of Monatin Sweetness ([3]; pH 2.5, day 3): 88.4%
Retention of Monatin Sweetness ([3]; pH 2.5, day 4): 85.2%
Retention of Monatin Sweetness ([3]; pH 2.5, day 7): 82.7%
Retention of Monatin Sweetness ([3]; pH 2.5, day 8): 81.4%
Retention of Monatin Sweetness ([3]; pH 2.5, day 9): 80.1%
Retention of Monatin Sweetness ([3]; pH 2.5, day 11): 78.6%
Retention of Monatin Sweetness ([3]; pH 2.5, day 50): 62.7%
Retention of Monatin Sweetness ([3]; pH 2.5, day 100): 28.6%
Rate constant (k) of sweetness loss ([3]; pH 3.0): 0.006 day⁻¹
Sweetness Retained ([3]; pH 3.0, after 100 days storage at 40° C.): 58%
Retention of Monatin Sweetness ([3]; pH 3.0, day 1): 99.6%
Retention of Monatin Sweetness ([3]; pH 3.0, day 2): 93.2%
Retention of Monatin Sweetness ([3]; pH 3.0, day 3): 91.4%
Retention of Monatin Sweetness ([3]; pH 3.0, day 4): 91.6%
Retention of Monatin Sweetness ([3]; pH 3.0, day 7): 85.3%
Retention of Monatin Sweetness ([3]; pH 3.0, day 8): 83.8%
Retention of Monatin Sweetness ([3]; pH 3.0, day 9): 83.1%
Retention of Monatin Sweetness ([3]; pH 3.0, day 11): 83.1%
Retention of Monatin Sweetness ([3]; pH 3.0, day 50): 72.3%
Retention of Monatin Sweetness ([3]; pH 3.0, day 100): 57.9%
Rate constant (k) of sweetness loss ([3]; pH 4.0): 0.003 day⁻¹
Sweetness Retained ([3]; pH 4.0, after 100 days storage at 40° C.): 78%
Retention of Monatin Sweetness ([3]; pH 4.0, day 3): 95.7%
Retention of Monatin Sweetness ([3]; pH 4.0, day 8): 86.8%
Retention of Monatin Sweetness ([3]; pH 4.0, day 11): 85.9%
Retention of Monatin Sweetness ([3]; pH 4.0, day 17): 82.4%
Retention of Monatin Sweetness ([3]; pH 4.0, day 24): 84.5%
Retention of Monatin Sweetness ([3]; pH 4.0, day 50): 82.9%
Retention of Monatin Sweetness ([3]; pH 4.0, day 100): 78.4%
Compound: NC(CC(O)(Cc1c[nH]c2ccccc12)C(=O)O)C(=O)O (stereo not shown) [Monatin, 2-hydroxy-2-(indol-3-ylmethyl)-4-aminoglutaric acid]
Comments: flavor enhancement (lemon flavor notes) [1]: enhanced the lemon flavor notes
time/intensity profile for sweetness [2]: very clearly superior to either aspartame or sucralose
stability of sweetness compared with aspartame ([3]; acidic conditions and storage at 40° C.): more stable sweetness than does aspartame
percentage retention of sweetness compared with aspartame ([3]; each pH (2.5, 3.0, 4.0), after 100 days storage at 40° C.): greater than that retained with aspartame; also recorded: greater than that retained from aspartame
SEV Monatin ([3]; pH 2.5, day 0): 7.35 % sucrose
SEV Monatin ([3]; pH 2.5, day 1): 6.86 % sucrose
SEV Monatin ([3]; pH 2.5, day 2): 6.70 % sucrose
SEV Monatin ([3]; pH 2.5, day 3): 6.50 % sucrose
SEV Monatin ([3]; pH 2.5, day 4): 6.26 % sucrose
SEV Monatin ([3]; pH 2.5, day 7): 6.08 % sucrose
SEV Monatin ([3]; pH 2.5, day 8): 5.98 % sucrose
SEV Monatin ([3]; pH 2.5, day 9): 5.89 % sucrose
SEV Monatin ([3]; pH 2.5, day 11): 5.78 % sucrose
SEV Monatin ([3]; pH 2.5, day 50): 4.61 % sucrose
SEV Monatin ([3]; pH 2.5, day 100): 2.10 % sucrose
SEV Monatin ([3]; pH 3.0, day 0): 7.08 % sucrose
SEV Monatin ([3]; pH 3.0, day 1): 7.05 % sucrose
SEV Monatin ([3]; pH 3.0, day 2): 6.60 % sucrose
SEV Monatin ([3]; pH 3.0, day 3): 6.47 % sucrose
SEV Monatin ([3]; pH 3.0, day 4): 6.49 % sucrose
SEV Monatin ([3]; pH 3.0, day 7): 6.04 % sucrose
SEV Monatin ([3]; pH 3.0, day 8): 5.93 % sucrose
SEV Monatin ([3]; pH 3.0, day 9): 5.88 % sucrose
SEV Monatin ([3]; pH 3.0, day 11): 5.88 % sucrose
SEV Monatin ([3]; pH 3.0, day 50): 5.12 % sucrose
SEV Monatin ([3]; pH 3.0, day 100): 4.10 % sucrose
SEV Monatin ([3]; pH 4.0, day 0): 7.40 % sucrose
SEV Monatin ([3]; pH 4.0, day 3): 7.08 % sucrose
SEV Monatin ([3]; pH 4.0, day 8): 6.42 % sucrose
SEV Monatin ([3]; pH 4.0, day 11): 6.36 % sucrose
SEV Monatin ([3]; pH 4.0, day 17): 6.10 % sucrose
SEV Monatin ([3]; pH 4.0, day 24): 6.25 % sucrose
SEV Monatin ([3]; pH 4.0, day 50): 6.14 % sucrose
SEV Monatin ([3]; pH 4.0, day 100): 5.80 % sucrose
